Measured values as given in patent publication US8901115B2, “Cyclic P1 linkers as factor XIa inhibitors” (Bristol-Myers Squibb Company, priority 2011, dated 2014).
Counter-ions that a name gives are not always drawn.

tested on: not given; experiment: not given; details: from C=CC[C@H](NC(=O)OC(C)(C)C)c1cc(-c2ccc(NC(=O)OC)cc2NC(=O)C(C)C=C)ccn1; rcm bond; 12-membered ring; Grubbs II (0.1 eq)/pTsOH; DCM; 4.0 mM; 40.0 °C

Row | Compound | ring closure, isolated yield [%]
1 | COC(=O)Nc1ccc2c(c1)NC(=O)C(C)C=CC[C@H](NC(=O)OC(C)(C)C)c1cc-2ccn1 (single isomer, unassigned; diastereomer a) | 25

same assay, conditions: from C=CC[C@H](NC(=O)OC(C)(C)C)c1cc(-c2ccc(NC(=O)OC)cc2NC(=O)C(C)C=C)cnc1F; rcm bond; 12-membered ring; Grubbs II (0.4 eq), microwave; DCE; 17.3 mM; 120.0 °C

Row | Compound | ring closure, isolated yield [%]
2 | COC(=O)Nc1ccc2c(c1)NC(=O)C(C)/C=C/C[C@H](NC(=O)OC(C)(C)C)c1cc-2cnc1F (stereo partly shown) | 68

same assay, conditions: from C=CC[C@H](NC(=O)OC(C)(C)C)c1nc(-c2ccc(NC(=O)OC)cc2N(C(=O)C(F)(F)F)[C@H](CC=C)C(=O)OC)cn1COCC[Si](C)(C)C; rcm bond; 12-membered ring; Grubbs II (0.03 eq); DCE; 37.7 mM; 85.0 °C; 16.0 h

Row | Compound | ring closure, isolated yield [%]
3 | COC(=O)Nc1ccc2c(c1)N(C(=O)C(F)(F)F)[C@@H](C(=O)OC)CC=CC[C@H](NC(=O)OC(C)(C)C)c1nc-2cn1COCC[Si](C)(C)C | 29

same assay, conditions: from C=CC[C@H](NC(=O)OC(C)(C)C)c1nc(-c2ccc(NC(=O)OC)cc2NC(=O)[C@H](C)C=C)cn1COCC[Si](C)(C)C; rcm bond; 12-membered ring; Grubbs II (0.4 eq)/pTsOH; DCM; 9.7 mM; 40.0 °C

Row | Compound | ring closure, isolated yield [%]
4 | COC(=O)Nc1ccc2c(c1)NC(=O)[C@H](C)/C=C/C[C@H](NC(=O)OC(C)(C)C)c1nc-2cn1COCC[Si](C)(C)C | 41

same assay, conditions: from C=CC[C@H](NC(=O)OC(C)(C)C)c1nc(-c2ccc(NC(=O)OC)cc2N[C@H](CC=C)C(=O)OC)cn1COCC[Si](C)(C)C; rcm bond; 12-membered ring; Grubbs II (0.4 eq), microwave; DCE; 40.0 mM; 120.0 °C

Row | Compound | ring closure, isolated yield [%]
5 | COC(=O)Nc1ccc2c(c1)N[C@@H](C(=O)OC)C/C=C/C[C@H](NC(=O)OC(C)(C)C)c1nc-2cn1COCC[Si](C)(C)C | 23

tested on: not given; experiment: not given; details: from C=CCCC(=O)Nc1cc(NC(=O)OC)ccc1-c1cn(COCC[Si](C)(C)C)c([C@H](CC=C)NC(=O)OC(C)(C)C)n1; rcm bond; 13-membered ring; 1.5 h

Row | Compound | ring closure, yield after HPLC [%]
6 | COC(=O)Nc1ccc2c(c1)NC(=O)CC/C=C/C[C@H](NC(=O)OC(C)(C)C)c1nc-2cn1COCC[Si](C)(C)C | 42

target: purified human Factor XIa (Homo sapiens (Human), UniProt P03951); experiment: Factor XIa enzyme inhibition assay (chromogenic substrate S-2366); type: biochemical; details: substrate S-2366, 50 mM HEPES pH 7.4
Procedure: The effectiveness of compounds of the present invention as inhibitors of the coagulation Factors XIa, VIIa, IXa, Xa, XIIa, plasma kallikrein or thrombin, can be determined using a relevant purified serine protease, respectively, and an appropriate synthetic substrate. The rate of hydrolysis of the chromogenic or fluorogenic substrate by the relevant serine protease was measured both in the absence and presence of compounds of the present invention. Assays were conducted at room temperature or at 37° C. […] A decrease in the rate of absorbance or fluorescence change in the presence of inhibitor is indicative of enzyme inhibition. Such methods are known to one skilled in the art. The results of this assay are expressed as the inhibitory constant, Ki.
Values of Ki were determined by allowing the protease to react with the substrate in the presence of the inhibitor. Reactions were allowed to go for periods of 20-180 minutes (depending on the protease) and the velocities (rate of absorbance or fluorescence change versus time) were measured. The following relationships were used to calculate Ki values: (vo−vs)/vs=I/(Ki(1+S/Km)) for a competitive inhibitor with one binding site; or vs/vo=A+((B−A)/(1+((IC50/(I))^n))); and Ki=IC50/(1+S/Km) for a competitive inhibitor where: […]

Chain of purified human Factor XIa (P03951 388-625): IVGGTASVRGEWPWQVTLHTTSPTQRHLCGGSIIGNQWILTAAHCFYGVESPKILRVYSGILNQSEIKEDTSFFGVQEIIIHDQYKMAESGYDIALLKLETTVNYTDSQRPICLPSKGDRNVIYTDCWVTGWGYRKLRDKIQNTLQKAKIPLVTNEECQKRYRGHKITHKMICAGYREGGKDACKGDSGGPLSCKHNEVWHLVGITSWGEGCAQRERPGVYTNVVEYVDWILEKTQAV
Chain of purified human Factor XIa (P03951 19-387 partner): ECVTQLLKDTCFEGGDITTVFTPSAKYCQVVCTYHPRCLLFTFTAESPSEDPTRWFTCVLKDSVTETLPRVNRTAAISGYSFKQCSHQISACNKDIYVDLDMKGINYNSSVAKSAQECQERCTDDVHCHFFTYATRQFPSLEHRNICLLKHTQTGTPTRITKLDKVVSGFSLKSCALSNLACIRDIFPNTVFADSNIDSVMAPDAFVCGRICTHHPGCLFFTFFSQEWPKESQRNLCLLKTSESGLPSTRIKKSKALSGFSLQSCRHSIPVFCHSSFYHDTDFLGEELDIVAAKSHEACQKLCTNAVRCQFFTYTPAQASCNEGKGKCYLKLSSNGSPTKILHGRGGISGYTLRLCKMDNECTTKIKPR

Row | Compound | Ki [nM]
7 | COC(=O)Nc1ccc2c(c1)N[C@@H](C(=O)OC)CCCC[C@H](N1CCC(c3cccc(Cl)c3)OC1=O)c1nc-2c[nH]1 (stereo partly drawn) [Example 5, Methyl (9R,14S)-14-(6-(3-chlorophenyl)-2-oxo-1,3-oxazinan-3-yl)-5-((methoxycarbonyl)amino)-8,16,18-triazatricyclo[13.2.1.0^2,7]octadeca-1(17),2,4,6,15(18)-pentaene-9-carboxylate] | 12.2
8 | COC(=O)Nc1ccc2c(c1)NC(=O)[C@H](C)CCCC(N1CC(=O)N(c3c(C(F)(F)F)ccc(Cl)c3F)CC1=O)c1cc-2ccn1 (single isomer, unassigned) [Example 37, TFA salt] | < 5
9 | COC(=O)Nc1ccc2c(c1)NC(=O)[C@H](C)CCC[C@H](N1CC[C@@H](c3c(F)ccc(Cl)c3F)NC1=O)c1nc-2c[nH]1 [Example 70] | < 5
10 | COC(=O)Nc1ccc2c(c1)N[C@@H](C(=O)OC)CCCC[C@H](N1CCC(c3cc(Cl)ccc3OC(F)F)OC1=O)c1nc-2c(C#N)[nH]1 (single isomer, unassigned) [Example 7] | 41.8
11 | COC(=O)Nc1ccc2c(c1)NC(=O)CCCC[C@H](N1CCC(c3cccc(Cl)c3)CC1=O)c1nc-2c[nH]1 (single isomer, unassigned) [Example 147] | 9.48
12 | COC(=O)Nc1ccc2c(c1)NC(=O)[C@H](C)CCC[C@H](N1CCC(c3cccc(Cl)c3)CC1=O)c1cc-2ccn1 (single isomer, unassigned) [Example 152] | < 5
13 | COC(=O)Nc1ccc2c(c1)N[C@@H](C(=O)OC)CCCC[C@H](N1CCC(c3cccc(Cl)c3)OC1=O)c1nc-2c(C#N)[nH]1 (single isomer, unassigned) [Example 79] | 13.3
14 | COC(=O)Nc1ccc2c(c1)NC(=O)[C@H](C)CCC[C@H](N1CCN(c3cccc(Cl)c3F)CC1=O)c1cc-2ccn1 [Example 20, Methyl N-[(10R,14S)-14-[4-(3-chloro-2-fluorophenyl)-2-oxopiperazin-1-yl]-10-methyl-9-oxo-8,16-diazatricyclo[13.3.1.0^2,7]nonadeca-1(19),2(7),3,5,15,17-hexaen-5-yl]carbamate] | 7.46
15 | C[C@@H]1CCC[C@H](N2CC[C@H](c3c(F)ccc(Cl)c3F)OC2=O)c2cc(ccn2)-c2cc(C(=O)O)ccc2NC1=O [Example 26, (10R,14S)-14-[(6R)-6-(3-chloro-2,6-difluorophenyl)-2-oxo-1,3-oxazinan-3-yl]-10-methyl-9-oxo-8,16-diazatricyclo[13.3.1.0^2,7]nonadeca-1(19),2,4,6,15,17-hexaene-4-carboxylic acid, TFA salt] | < 5
16 | COC(=O)Nc1ccc2c(c1)NC(=O)CCCC[C@H](N1CCC(c3cccc(Cl)c3)OC1=O)c1nc-2c[nH]1 (stereo partly drawn) [Example 4, Methyl ((14S)-14-(6-(3-chlorophenyl)-2-oxo-1,3-oxazinan-3-yl)-9-oxo-8,16,18-triazatricyclo[13.2.1.0^2,7]octadeca-1(17),2,4,6,15(18)-pentaen-5-yl)carbamate] | 3400
17 | COC(=O)Nc1ccc2c(c1)NC(=O)CC/C=C/C[C@H](N1CCC(C)(c3c(F)ccc(Cl)c3F)OC1=O)c1nc-2c(Cl)[nH]1 (single isomer, unassigned) [Example 99] | 1930
18 | COC(=O)Nc1ccc2c(c1)NC(=O)[C@H](C)CCC[C@H](N1CCC(c3c(C(F)(F)F)ccc(Cl)c3F)OC1=O)c1cc-2ccn1 (single isomer, unassigned) [Example 133] | 69.3
19 | COC(=O)Nc1ccc2c(c1)NC(=O)[C@H](C)CCC[C@H](N1CC[C@@H](c3nccc(Cl)c3F)N(C)C1=O)c1nc-2c[nH]1 [Example 71] | 330
20 | COC(=O)Nc1ccc2c(c1)NC(=O)[C@H](C)CCC[C@H](N1CCC(c3nccc(Cl)c3F)NC1=O)c1nc-2c[nH]1 (single isomer, unassigned) [Example 58] | < 5
21 | COC(=O)Nc1ccc2c(c1)NC(=O)[C@@H](C)CCC[C@H](N1CC[C@@H](c3c(F)ccc(Cl)c3F)OC1=O)c1ccnc-2c1 [Example 119] | 9.6
22 | COC(=O)Nc1ccc2c(c1)NC(=O)[C@H](C)CCC[C@H](N1CC[C@H](c3nccc(Cl)c3F)N(C)C1=O)c1nc-2c[nH]1 [Example 72] | 28.8
23 | COC(=O)Nc1ccc2c(c1)NC(=O)CC/C=C/C[C@H](N1CCC(c3cc(Cl)ccn3)NC1=O)c1nc-2c[nH]1 (single isomer, unassigned) [Example 40] | 24.4
24 | COC(=O)Nc1ccc2c(c1)NC(=O)CC/C=C/C[C@H](N1CC[C@H](c3cc(Cl)ccc3OC(F)F)OC1=O)c1nc-2c[nH]1 [Example 77] | 7.46
25 | COC(=O)Nc1ccc2c(c1)NC(=O)[C@H](C)CCC[C@H](N1CC[C@@H](c3c(F)ccc(Cl)c3F)OC1=O)c1cc-2ccn1 [Example 100] | < 5
26 | COC(=O)Nc1ccc2c(c1)NC(=O)[C@H](C)CCC[C@H](N1CCC(c3c(Cl)ccc(Cl)c3F)NC1=O)c1nc-2c[nH]1 (stereo partly drawn) [Example 18, Methyl N-[(10R,14S)-14-[4-(3,6-dichloro-2-fluorophenyl)-2-oxo-1,3-diazinan-1-yl]-10-methyl-9-oxo-8,16,18-triazatricyclo[13.2.1.0^2,7]octadeca-1(17),2,4,6,15(18)-pentaen-5-yl]carbamate] | 6.83
27 | COC(=O)Nc1ccc2c(c1)NC(=O)C(C)CCC[C@H](N1CC[C@H](c3c(F)ccc(Cl)c3F)OC1=O)c1cc-2cnn1 (stereo partly drawn) [Example 13, Methyl N-[(14S)-14-[(6R)-6-(3-chloro-2,6-difluorophenyl)-2-oxo-1,3-oxazinan-3-yl]-10-methyl-9-oxo-8,16,17-triazatricyclo[13.3.1.0^2,7]nonadeca-1(19),2(7),3,5,15,17-hexaen-5-yl]carbamate] | < 5

same assay, conditions: substrate S-2366, 50 mM HEPES pH 7.4, TFA salt

Row | Compound | Ki [nM]
28 | COC(=O)Nc1ccc2c(c1)NC(=O)CC/C=C/C[C@H](N1CCC(C)(c3c(F)ccc(Cl)c3F)OC1=O)c1nc-2c(Cl)[nH]1 (stereo partly drawn) [Example 32, Methyl N-[(12E,15S)-18-chloro-15-[6-(3-chloro-2,6-difluorophenyl)-6-methyl-2-oxo-1,3-oxazinan-3-yl]-9-oxo-8,17,19-triazatricyclo[14.2.1.0^2,7]nonadeca-1(18),2,4,6,12,16(19)-hexaen-5-yl]carbamate, TFA salt] | 2460
